Data taken from US20010018071A1, “Oral 2-methyl-thieno-benzodiazepine formulation” (priority 1995, published 2001).

Legend:
[1] = Detection of radiolabelled compound in saliva; type: in vivo
Experimental: The anhydrous Form I 2-methyl-4-(4-methyl-1-piperazinyl)-10H-thieno-[2,3-b][1,5]benzodiazepine compound is effective over a wide dosage range, the actual dose administered being dependent on the condition being treated. For example, in the treatment of adult humans, dosages of from about 0.25 to 50 mg, preferably from 1 to 30 mg, and most preferably 1 to 20 mg per day may be used. A once a day dosage is normally sufficient, although divided doses may be administered. For treatment of central nervous system disorders, a dose range of from 1 to 30 mg, preferably 1 to 20 mg per day is suitable. Radiolabelled Form I 2-methyl-4-(4-methyl-1-piperazinyl)-10H-thieno-[2,3-b]

[2] = Discoloration of olanzapine on contact with excipients; type: physicochemical
From the text: Further, the discoloration was exacerbated by ambient air conditions, at elevated temperatures, and by moist environments.
(§1) The Form I 2-methyl-4-(4-methyl-1-piperazinyl)-10H-thieno[2,3-b]

[3] = Polymorph stability and transformation; type: physicochemical; details: for polymorph stability: anhydrous crystal forms
From the text: Unfortunately, anhydrous Form II olanzapine is metastable and is therefore not well suited for commercial use in pharmaceutical formulations. Applicants have discovered that the pharmaceutically elegant anhydrous Form I olanzapine can be formulated in its substantially pure form as a stable solid oral preparation. Such formulation provides assurance of a uniform pharmaceutically elegant product substantially free of Form II impurity in order to comply with regulatory requirements.
Further certain excipients exacerbate physical instability. For commercial pharmaceutical development and compliance with regulatory guidelines, it is important to assure that marketed formulations comprise a uniform pharmaceutically elegant substantially pure anyhydrous Form I 2-methyl-4-(4-methyl-1-piperazinyl)-10H-thieno[2,3-b] [1,5] benzodiazepine compound as the active ingredient and most preferably the formulation is free from undesired discolorations.
as §1

## Cc1cc2c(s1)Nc1ccccc1N=C2N1CCN(C)CC1 [2-methyl-4-(4-methyl-1-piperazinyl)-10H-thieno-[2,3-b] [1,5]benzodiazepine]
[1]
  detection in saliva: can be detected in the saliva

## Cc1cc2c(s1)Nc1ccccc1N=C2N1CCN(C)CC1 [olanzapine, 2-methyl-4-(4-methyl-1-piperazinyl)-10H-thieno[2,3-b][1,5] benzodiazepine]
[2]; contacted with certain excipients including powder blends
  discoloration: undergoes undesirable discoloration
[2]; polyethylene glycol contact, particularly under moist conditions
  discoloration: produces undesired discoloration

## Cc1cc2c(s1)Nc1ccccc1N=C2N1CCN(C)CC1 [anhydrous Form II olanzapine, 2-methyl-4-(4-methyl-1-piperazinyl)-10H-thieno[2,3-b][1,5] benzodiazepine]
[3]
  polymorph stability: metastable

## Cc1cc2c(s1)Nc1ccccc1N=C2N1CCN(C)CC1 [Form I olanzapine, 2-methyl-4-(4-methyl-1-piperazinyl)-10H-thieno[2,3-b][1,5] benzodiazepine]
[3]
  polymorph stability: most stable known form
[3]; contact with methylene chloride
  polymorphic conversion: can be converted to the less desirable polymorphic forms
